In patent publication US20240383900A1, “SUBSTITUTED PYRAZOLO [1,5-A]PYRIMIDINE-7-AMINE COMPOUNDS AS CDK INHIBITORS AND THEIR THERAPEUTIC USE” (Carrick Therapeutics Limited, priority 2021, published 2024):
Where two headings read alike, the source gives them in different places.

How the values were obtained:
Human CDK7/CycH/MAT1 = Human CDK7/CycH/MAT1 (Homo sapiens (Human), UniProt P50613); assay: Radiometric protein kinase assay (33PanQinase Activity Assay), CDK7; assay type: biochemical; details: ATP 3 μM
Procedure: Additionally for the CDK7 assay: • Human CDK7/CycH/MAT1 (ProQinase, 0366-0360-4—Lot 2). • RBER-CHKtide (ProQinase, 0581-0000-5—Lot 106).
(§1) A radiometric protein kinase assay (^33PanQinase® Activity Assay) was used for measuring the kinase activity of the two protein kinases (CDK12/CDK7). All kinase assays were performed in 96-well FlashPlates™ from PerkinElmer (Boston, MA, USA) in a 50 μL reaction volume.
(§2) The reaction cocktail was pipetted in four steps in the following order: • 20 μL of assay buffer (standard buffer) • 5 μL of ATP solution (in H2O) • 5 μL of test compound (in 10% DMSO) • 10 μL of substrate/10 μL of enzyme solution (premixed)
For the CDK7 assay, a reaction mixture (50 μL) containing the following components was prepared: • 70 mM HEPES-NaOH (pH 7.5); • sodium orthovanadate (3 μM); • PEG-20000 (50 μg/mL); • DTT (1.2 mM); • MgCl2 (3 mM); • MnCl2 (3 mM); • purified human CDK7/CycH/MAT1 (3.3 nM—Lot 02); • RBER-CHKtide substrate (40 μg/mL—Lot 106); • ATP (3 μM); • [γ-33P]-ATP (approx. 8×10^5 cpm per well); and • test compound at the appropriate concentration such that the final concentration of DMSO was […].
(§3) The reaction mixture was incubated at 30° C. for 60 min and then stopped by the addition of 2% (v/v) H3PO4. Plates were aspirated and washed two times with 200 μL 0.9% (w/v) NaCl. Incorporation of ^33Pi was determined with a microplate scintillation count (Microbeta, Wallac).
The residual activities for each concentration and the compound IC50 values were calculated using Quattro Workflow V3.1.1 (Quattro Research GmbH, Munich, Germany). The fitting model for the IC50 determinations was “Sigmoidal response (variable slope)” with parameters “top” fixed at 100% and “bottom” at 0%. The fitting method used was a least-squares fit.

Human CDK12 wt/CycK = Human CDK12 wt/CycK (Homo sapiens (Human), UniProt Q9NYV4); assay: Radiometric protein kinase assay (33PanQinase Activity Assay), CDK12; assay type: biochemical; details: for CDK7/CDK12: ratio of CDK7 IC50 to CDK12 IC50, greater than 1 indicates selectivity for CDK12
Procedure: as §1, §2, §3
The fitting method used was a least-squares fit.

A673 cells = assay: Cytotoxicity in A673 cells (Cell Titer Glo viability); assay type: cell-based; details: for Ratio of Biochemical Potency:Cellular Potency: CDK12 IC50 / A673 IC50; for IC50: Homo sapiens
Procedure: Cells were plated in 96-well plates at a density of […] viable cells per well in 200 μL fully supplemented growth medium (DMEM+10% heat inactivated foetal bovine serum) and incubated for 24 hours in standard tissue culture conditions. Compounds, including MLN4924, were solubilised in DMSO and then diluted in fully supplemented growth medium at 2× their final assay concentration such that the final DMSO concentration was 0.1%. Growth medium in the assay plates was replaced with 50 μL of growth medium containing 2×MLN4924 (final assay concentration: 30 nM, where tested) or vehicle only and 50 μL of growth medium containing a 2× compound concentration series or vehicle only such that each compound was at 1× final assay concentration in 100 μL.
Cells were then incubated for 72 hours in standard tissue culture conditions before viability was assessed using 50 μL Cell Titer Glo reagent (Promega) per well and luminescence measured on an EnVision plate reader. Data were normalised to vehicle control (100%) and cells treated with 0.1% Triton x-100 for 1 hour before viability measurement (0%; full cell kill). […] Viability curves generated in the presence of MLN4924 were normalised and fixed to controls treated with MLN4924.

[1] = ATP 0.3 μM, read-out: CDK12 IC50
[2] = read-out: CKD12 Biochemical Potency IC50
[3] = A673, read-out: Cellular Potency IC50 (nM) (in A673 cells)
[4] = A673 cells, 72 hours, read-out: A673 IC50

Chain of Human CDK7/CycH/MAT1 (P50613 whole entry): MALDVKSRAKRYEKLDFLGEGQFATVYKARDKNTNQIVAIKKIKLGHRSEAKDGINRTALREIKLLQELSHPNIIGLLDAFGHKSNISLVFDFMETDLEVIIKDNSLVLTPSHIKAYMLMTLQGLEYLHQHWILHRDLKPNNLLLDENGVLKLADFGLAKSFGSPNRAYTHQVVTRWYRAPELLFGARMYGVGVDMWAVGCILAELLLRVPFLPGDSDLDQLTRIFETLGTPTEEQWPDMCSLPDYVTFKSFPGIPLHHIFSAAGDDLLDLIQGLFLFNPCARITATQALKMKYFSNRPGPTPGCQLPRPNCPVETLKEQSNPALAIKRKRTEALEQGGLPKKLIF
Chain of Human CDK7/CycH/MAT1 (P51946 whole entry partner): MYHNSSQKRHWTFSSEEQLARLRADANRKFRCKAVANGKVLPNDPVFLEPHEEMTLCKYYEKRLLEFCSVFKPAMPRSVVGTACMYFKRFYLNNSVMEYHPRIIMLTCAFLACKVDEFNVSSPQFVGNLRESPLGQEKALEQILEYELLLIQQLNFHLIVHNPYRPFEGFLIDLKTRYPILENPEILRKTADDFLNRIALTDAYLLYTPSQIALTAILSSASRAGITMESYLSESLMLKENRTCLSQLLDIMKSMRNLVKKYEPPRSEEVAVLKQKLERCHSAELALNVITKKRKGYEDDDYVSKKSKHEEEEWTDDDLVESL
Chain of Human CDK7/CycH/MAT1 (P51948 whole entry partner): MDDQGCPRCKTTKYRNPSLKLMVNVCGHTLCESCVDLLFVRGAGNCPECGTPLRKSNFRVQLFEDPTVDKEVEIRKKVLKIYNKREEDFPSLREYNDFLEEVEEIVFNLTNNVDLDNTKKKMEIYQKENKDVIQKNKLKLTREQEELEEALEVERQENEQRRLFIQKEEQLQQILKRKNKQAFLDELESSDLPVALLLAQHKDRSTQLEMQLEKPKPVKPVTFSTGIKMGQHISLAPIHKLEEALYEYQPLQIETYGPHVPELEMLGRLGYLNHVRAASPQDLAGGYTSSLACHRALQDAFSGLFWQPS
Chain of Human CDK12 wt/CycK (Q9NYV4 whole entry): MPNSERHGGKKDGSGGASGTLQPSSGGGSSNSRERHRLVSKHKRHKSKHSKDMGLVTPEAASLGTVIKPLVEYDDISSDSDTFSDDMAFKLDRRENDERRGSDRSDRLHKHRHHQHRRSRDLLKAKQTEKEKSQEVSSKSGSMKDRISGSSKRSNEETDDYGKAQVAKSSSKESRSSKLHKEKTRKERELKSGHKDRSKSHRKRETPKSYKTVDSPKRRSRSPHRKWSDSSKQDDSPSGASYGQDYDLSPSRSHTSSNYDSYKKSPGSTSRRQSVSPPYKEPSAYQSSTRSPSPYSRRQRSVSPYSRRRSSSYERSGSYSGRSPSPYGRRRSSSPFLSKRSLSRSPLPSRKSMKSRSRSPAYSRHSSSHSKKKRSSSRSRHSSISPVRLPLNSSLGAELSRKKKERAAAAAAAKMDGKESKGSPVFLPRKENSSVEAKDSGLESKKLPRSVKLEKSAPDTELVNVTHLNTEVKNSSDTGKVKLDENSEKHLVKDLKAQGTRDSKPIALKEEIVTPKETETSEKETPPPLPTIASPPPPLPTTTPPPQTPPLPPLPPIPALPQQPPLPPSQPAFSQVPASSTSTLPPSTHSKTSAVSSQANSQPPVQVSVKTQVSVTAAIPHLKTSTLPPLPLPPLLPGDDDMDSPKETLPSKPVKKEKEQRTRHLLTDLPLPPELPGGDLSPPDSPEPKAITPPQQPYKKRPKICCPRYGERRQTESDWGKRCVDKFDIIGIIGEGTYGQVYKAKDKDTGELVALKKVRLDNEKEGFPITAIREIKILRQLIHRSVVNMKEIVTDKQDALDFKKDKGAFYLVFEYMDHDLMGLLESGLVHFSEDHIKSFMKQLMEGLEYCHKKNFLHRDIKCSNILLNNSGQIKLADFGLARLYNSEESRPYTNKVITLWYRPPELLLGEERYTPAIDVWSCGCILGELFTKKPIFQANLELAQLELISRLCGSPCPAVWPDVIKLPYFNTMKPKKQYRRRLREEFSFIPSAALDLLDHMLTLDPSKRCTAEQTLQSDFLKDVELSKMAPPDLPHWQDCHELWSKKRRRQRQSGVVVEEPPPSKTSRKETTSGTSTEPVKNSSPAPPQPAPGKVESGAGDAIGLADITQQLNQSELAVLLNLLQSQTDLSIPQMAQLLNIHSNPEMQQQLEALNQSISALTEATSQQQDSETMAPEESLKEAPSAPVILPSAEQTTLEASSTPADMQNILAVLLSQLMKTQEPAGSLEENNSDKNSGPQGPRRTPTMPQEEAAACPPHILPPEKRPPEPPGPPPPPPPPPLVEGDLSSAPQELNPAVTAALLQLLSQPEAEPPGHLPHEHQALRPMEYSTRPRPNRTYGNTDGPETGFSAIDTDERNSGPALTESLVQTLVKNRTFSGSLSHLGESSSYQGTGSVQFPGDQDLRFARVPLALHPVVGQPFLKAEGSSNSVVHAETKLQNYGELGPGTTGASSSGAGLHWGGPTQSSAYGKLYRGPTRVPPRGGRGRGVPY
Chain of Human CDK12 wt/CycK (O75909 whole entry partner): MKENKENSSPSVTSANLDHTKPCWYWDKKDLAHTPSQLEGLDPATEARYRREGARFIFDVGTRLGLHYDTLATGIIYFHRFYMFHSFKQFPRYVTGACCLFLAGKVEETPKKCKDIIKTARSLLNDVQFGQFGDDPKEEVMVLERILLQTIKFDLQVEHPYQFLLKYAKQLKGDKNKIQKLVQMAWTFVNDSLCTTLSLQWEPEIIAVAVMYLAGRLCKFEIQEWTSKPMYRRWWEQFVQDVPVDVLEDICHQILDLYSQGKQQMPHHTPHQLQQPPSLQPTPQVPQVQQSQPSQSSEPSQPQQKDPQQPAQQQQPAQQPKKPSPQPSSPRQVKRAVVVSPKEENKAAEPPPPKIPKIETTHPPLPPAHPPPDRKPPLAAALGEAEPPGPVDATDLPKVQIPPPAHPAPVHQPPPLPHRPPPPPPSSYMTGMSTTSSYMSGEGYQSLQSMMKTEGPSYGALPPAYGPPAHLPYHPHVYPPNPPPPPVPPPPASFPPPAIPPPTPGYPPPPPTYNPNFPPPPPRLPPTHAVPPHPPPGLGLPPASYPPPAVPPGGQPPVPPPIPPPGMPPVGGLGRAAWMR

| IC50 (Human CDK7/CycH/MAT1) [µM] | IC50 (Human CDK12 wt/CycK; [1]) [µM] | CDK7/CDK12 (Human CDK12 wt/CycK) | IC50 (Human CDK12 wt/CycK; [2]) [µM] | Compound | Ratio of Biochemical Potency:Cellular Potency (A673 cells) | IC50 (A673 cells; [3]) [nM] | IC50 (A673 cells; [4]) [nM] |
| --- | --- | --- | --- | --- | --- | --- | --- |
| 9.61 | 0.374 | 25.7 | 0.374 | c1ccc(-c2ccc(CNc3cc(N[C@@H]4CCCNC4)nc4c(C5CC5)cnn34)cc2)nc1 [PPA-045] | 11.27 | 33.2 | 33.2 |
| > 30 | 3.78 | >8 | 3.78 | CC(=O)N1CCC(CNc2cc(NCc3ccc(-c4ccccn4)cc3)n3ncc(C4CC4)c3n2)CC1 [PPA-046] | 12.38 | 305 | 305 |
| 1.29 | 0.082 | 15.7 | 0.082 | c1ccc(-c2ccc(CNc3cc(NC4CCNCC4)nc4c(C5CC5)cnn34)cc2)nc1 [PPA-048] | 12.06 | 6.8 | 6.8 |
| 10.5 | 0.423 | 24.8 | 0.423 | OC1CCN(c2cc(NCc3ccc(-c4ccccn4)cc3)n3ncc(C4CC4)c3n2)CC1 [PPA-050] | 9.44 | 44.8 | 44.8 |
| 11.2 | 0.664 | 16.9 | 0.664 | O=C1CC(CNc2cc(NCc3ccc(-c4ccccn4)cc3)n3ncc(C4CC4)c3n2)CCN1 (stereo not shown) [PPA-051] | 22.98 | 28.9 | 28.9 |
| > 30 | 6.63 | >4.5 | 6.63 | OC1CN(c2cc(NCc3ccc(-c4ccccn4)cc3)n3ncc(C4CC4)c3n2)C1 [PPA-052] | <66.3 | > 100 | > 100 |
| 0.169 | 0.053 | 3.2 | 0.053 | CN(C[C@H]1CCNC[C@@H]1O)c1cc(NCc2ccc(-c3ccccn3)cc2)n2ncc(C3CC3)c2n1 [PPA-053] | 21.20 | 2.5 | 2.5 |
| 0.589 | 0.049 | 12.0 | 0.049 | O[C@H]1CNCC[C@@H]1CNc1cc(NCc2ccc(-c3nccs3)cc2F)n2ncc(C3CC3)c2n1 [PPA-054] | 18.15 | 2.7 | 2.7 |
| 13.3 | 1.24 | 10.7 | 1.24 | NC1CN(c2cc(NCc3ccc(-c4ccccn4)cc3)n3ncc(C4CC4)c3n2)C1 [PPA-057] | 24.65 | 50.3 | 50.3 |
| 1.26 | 0.097 | 13.0 | 0.097 | c1ccc(-c2ccc(CNc3cc(O[C@@H]4CCCNC4)nc4c(C5CC5)cnn34)cc2)nc1 [PPA-061] | 18.30 | 5.3 | 5.3 |
| 3.64 | 0.459 | 7.9 | 0.459 | FC1(CNc2cc(NCc3ccc(-c4ccccn4)cc3)n3ncc(C4CC4)c3n2)CCNCC1 [PPA-062] | 34.25 | 13.4 | 13.4 |
| 0.912 | 0.174 | 5.2 | 0.174 | O[C@H]1CNCC[C@@H]1CNc1cc(NCc2ccc(-c3ccccc3)cc2F)n2ncc(C3CC3)c2n1 [PPA-066] | 7.13 | 24.4 | 24.4 |
| 0.562 | 0.065 | 8.6 | 0.065 | O[C@H]1CNCC[C@@H]1CNc1cc(NCc2ccc(-c3ncccn3)cc2F)n2ncc(C3CC3)c2n1 [PPA-067] | 25.00 | 2.6 | 2.6 |
